{
  "source": "patent US20100093642A1",
  "about": "“NOVEL POLYPEPTIDES” (priority 2006, published 2010)",
  "key": {"[1]": {"tested_on": "E. coli (ATCC 25922)", "format": "cell-based, Escherichia coli", "procedure,_shortened": "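Peptide fractions were incubated with actively growing bacteria in Mueller Hinton medium at a starting concentration of 3×10^4 cells per ml. Growth was monitored continuously in a Bioscreen C reader; polymyxin B served as reference.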"}, "[2]": {"tested_on": "Bacillus spp K13-61", "format": "cell-based", "details": "clinical isolate; 37° C.; 3×10^6 cells per ml", "experimental": "(§1) The antibacterial activities of the different peptides were determined by continuous monitoring of bacterial growth with a Bioscreen C microbiology reader (Labsystems Oy, Helsinki, Finland). The test was performed in 100-well flat-bottomed honeycomb plates, in which 50 μl of test fractions were incubated with 50 μl of a suspension of an actively growing culture of bacteria diluted in Mueller Hinton medium to a starting concentration of 3×10^4 cells per ml. The Gram-negative bacteria, Listonella (Vibrio) anguillarum, serotype O2 (FT 1801, a fish pathogenic strain), Pseudomonas aeruginosa and E. coli (ATCC 25922), and the Gram-positive bacteria, C. glutamicum (ATCC 13032) and S. aureus (ATCC 9144), were chosen as test bacteria. The growth chamber was maintained at either 20 or 37° C. during the incubation period. The absorbance was measured at 2 h intervals for 48 h by a turbidometric method with vertical light photometry and a wide band filter (420-580 nm), which is more insensitive to color change in the sample compared to single wavelength detection. Antibacterial activity was determined when the optical density (OD) of the growth control (bacteria plus water) reached an absorbance of 0.3-0.4. Fractions were regarded as active when the OD was less than 50% of the growth control. Polymyxin B (Sigma, St. Louis, Mo., USA), Lactoferricin B, Cecropin P1 and Hyalophora cecropia Cecropin B were used as reference.\n(§2) The antimicrobial molecules were also tested against drug resistant clinical isolates, such as the commonly encountered multi-resistant human pathogen S. aureus (MRSA) K15-64 and the glycopeptide (vancomycin)-resistant Enterococccus faecium (GREF) K9-28. The non-clinical isolates Escherichia coli (ATCC 25922), Pseudomonas aeruginosa (ATCC 27853), Corynebacterium glutamicum (ATCC 13032), and Staphylococcus aureus (ATCC 9144) were also tested for comparison. Serial dilutions of synthetic peptides were made in double distilled water and tested according to the method described above. However, in these experiments the starting concentration of bacteria were 3×10^6 cells per ml and the temperature in the growth chamber was 37° C. Polymyxin B was used as positive control for the Gram-negative bacteria."}, "[3]": {"tested_on": "Corynebacterium glutamicum, ATCC 13032", "format": "cell-based", "details": "non-clinical isolate; 37° C.; 3×10^6 cells per ml", "experimental": "as §1, §2"}, "[4]": {"tested_on": "Enterococcus faecium (GREF), K9-28", "format": "cell-based", "details": "vancomycin-resistant clinical isolate; 37° C.; 3×10^6 cells per ml", "experimental": "as §1, §2"}, "[5]": {"tested_on": "Klebsiella K15-72", "format": "cell-based", "details": "clinical isolate; 37° C.; 3×10^6 cells per ml", "experimental": "as §1, §2"}, "[6]": {"tested_on": "Salmonella K14-40", "format": "cell-based", "details": "clinical isolate; 37° C.; 3×10^6 cells per ml", "experimental": "as §1, §2"}, "[7]": {"tested_on": "Staphylococcus aureus (MRSA), K15-64", "format": "cell-based", "details": "multi-resistant clinical isolate; 37° C.; 3×10^6 cells per ml", "experimental": "as §1, §2"}, "[8]": {"tested_on": "TNF-α", "assay": "Inhibition of LPS induced TNF-α response in THP-1 cells (ELISA)", "format": "cell-based, human", "details": "Ratio TC50 (THP-1)/EC50 (anti-TNFα)", "experimental": "FIG. 12. Antiinnflammatory response measured as inhibition of tumor necrosis factor alpha (TNF-α) response in THP-1 cells after stimulation with LPS. THP-1 cells (1×10^6 cells/ml) were treated with P17 derivates in different concentrations for 1 hour, and subsequently stimulated with 100 ng/ml LPS for 6 hours. LPS was used as control for induction of TNF-α. (set as 100% response), RPMI media was used as negative (non-stimulated) control, and cycloheximide (Chx, 10 μg/ml) was used as a an inhibitory control for LPS induced TNF-α. The data presented are the average of two parallells. (A) The effect of the peptides P17 HC and P17 HC (1-20). (B) The effect of the peptides P17 HC (11-20) and P17 HC-Br.\nThe THP-1 cells (ATCC, TIB-202) were maintained in suspension in RPMI-1640 medium with 25 mM HEPES and 2 mM Glutamax I supplemented with 10% FBS (growth medium) in a humidified atmosphere of 5% CO2 at 37° C. Cells to be used in the assay were grown to a density of 8×10^5-1×10^6 cells/ml. The cells were centrifuged for 7 min at 200 g and the cell pellet was resuspended to a concentration of 10^6 cells/ml in RPMI-1640 with 10% FBS.\nTo allow examination of antiinflammatory effects of the peptides on basal and stimulated cytokine production, peptide-treated macrophages were cultured in the presence of LPS and the levels of TNF-α were measured. The primary screening was based on a mammalian cell line; the human THP-1 line. This line is of monocyte/macrophage origin and responds to various stimuli by increased production of cytokines, like TNF-α and the IL-1β, (Wang et al. 2000). To induce monocyte-macrophage differentiation, THP-1 cells were cultured in 96-well culture plates (10^6 cells/well) in a volume of 100 μl RPMI 1640 medium, containing 50 ng/ml PMA (which is known to induce the maturation of monocytes) and incubated in a humidified atmosphere of 5% CO2, at 37° C. for 48 hours. The medium was then removed and the cells were washed with PBS, added 100 μl fresh medium (without PMA) and incubated for another 24 hours. Medium was removed and the adherent macrophages were treated with 100 μl of peptide solution (concentrations ranging from 0 to 400 μg/ml), diluted in RPMI-1640 medium with 25 mM HEPES and 2 mM Glutamax I, but without […] (assay medium). After incubation at 37° C. for 1 hour, the cells were added LPS (0.1 μg/ml) and further incubated for 6 hours. […] TNF-α concentrations were quantified by the Human TNF-α ELISA MAX kit (BioLegend), according to the manufacturer's instructions. Duplicate readings for each standard, control and sample were recorded. The average absorbance for each set of standards, controls, and samples was calculated using a standard curve. Concentrations were determined by extrapolation on the standard curve."}},
  "note": "Residues, ends and D or L forms follow the SMILES beside them. No end group written: not given here.",
  "data": [
    {"molecule": "CC[C@H](C)[C@H](NC(=O)CNC(=O)[C@H](CO)NC(=O)[C@H](CCCCN)NC(=O)[C@@H](NC(=O)[C@H](C)NC(=O)[C@H](Cc1c[nH]cn1)NC(=O)[C@H](CO)NC(=O)[C@@H](NC(=O)[C@H](CCCCN)NC(=O)[C@H](Cc1c[nH]cn1)NC(=O)[C@H](Cc1ccccc1)NC(=O)[C@@H](NC(=O)[C@H](CCCCN)NC(=O)[C@H](CCCCN)NC(=O)[C@H](Cc1ccccc1)NC(=O)C(Cc1c[nH]c2ccc(Br)cc12)NC(=O)CN)[C@@H](C)O)C(C)C)C(C)C)C(=O)N[C@@H](Cc1c[nH]cn1)C(=O)N[C@@H](C)C(=O)O", "note": "(stereo partly shown) [P17 HC-Br (1-20)] (HELM PEPTIDE1{G.[O=C(C(Cc1c[nH]c2ccc(Br)cc12)N[*:1])[*:2]].F.K.K.T.F.H.K.V.S.H.A.V.K.S.G.I.H.A}$$$$V2.0; N-terminus and C-terminus assumed)", "values": [
      {"measurement": "Minimal inhibitory concentration, E. coli", "setting": "[1]", "value": 6.25, "unit": "µM"}
    ]},
    {"molecule": "CC[C@H](C)[C@H](NC(=O)CNC(=O)[C@H](CO)NC(=O)[C@H](CCCCN)NC(=O)[C@@H](NC(=O)[C@H](C)NC(=O)[C@H](Cc1c[nH]cn1)NC(=O)[C@H](CO)NC(=O)[C@@H](NC(=O)[C@H](CCCCN)NC(=O)[C@H](Cc1c[nH]cn1)NC(=O)[C@H](Cc1ccccc1)NC(=O)[C@@H](NC(=O)[C@H](CCCCN)NC(=O)[C@H](CCCCN)NC(=O)[C@H](Cc1ccccc1)NC(=O)C(Cc1c[nH]c2ccc(Br)cc12)NC(=O)CN)[C@@H](C)O)C(C)C)C(C)C)C(=O)N[C@@H](Cc1c[nH]cn1)C(=O)N[C@@H](C)C(=O)NCC(=O)N[C@@H](CCC(N)=O)C(=O)N[C@@H](CCCNC(=N)N)C(=O)NCC(=O)N[C@@H](CS)C(=O)N[C@@H](CO)C(=O)N[C@@H](C)C(=O)N[C@@H](CC(C)C)C(=O)NCC(=O)N[C@@H](Cc1ccccc1)C(=O)O", "note": "(stereo partly shown) [P17 HC-Br] (HELM PEPTIDE1{G.[O=C(C(Cc1c[nH]c2ccc(Br)cc12)N[*:1])[*:2]].F.K.K.T.F.H.K.V.S.H.A.V.K.S.G.I.H.A.G.Q.R.G.C.S.A.L.G.F}$$$$V2.0)", "values": [
      {"measurement": "Minimal inhibitory concentration, E. coli", "setting": "[1]", "value": 1.56, "unit": "µM"},
      {"measurement": "Minimal inhibitory concentration, Bacillus spp K13-61", "setting": "[2]", "value": 6.25, "unit": "µM"},
      {"measurement": "Minimal inhibitory concentration, Corynebacterium glutamicum, ATCC 13032", "setting": "[3]", "value": 0.78, "unit": "µM"},
      {"measurement": "Minimal inhibitory concentration, Enterococcus faecium (GREF), K9-28", "setting": "[4]", "value": 0.78, "unit": "µM"},
      {"measurement": "Minimal inhibitory concentration, Klebsiella K15-72", "setting": "[5]", "value": 3.12, "unit": "µM"},
      {"measurement": "Minimal inhibitory concentration, Salmonella K14-40", "setting": "[6]", "value": 6.25, "unit": "µM"},
      {"measurement": "Minimal inhibitory concentration, Staphylococcus aureus (MRSA), K15-64", "setting": "[7]", "value": 6.25, "unit": "µM"},
      {"measurement": "Therapeutic index TC50/EC50", "setting": "[8]", "value": 46.5}
    ]},
    {"molecule": "GWFKKTFHKVSHAVKSGIHA [P17 HC (1-20)]", "values": [
      {"measurement": "Minimal inhibitory concentration, E. coli", "setting": "[1]", "value": 6.25, "unit": "µM"},
      {"measurement": "Minimal inhibitory concentration, Bacillus spp K13-61", "setting": "[2]", "value": 50, "unit": "µM"},
      {"measurement": "Minimal inhibitory concentration, Corynebacterium glutamicum, ATCC 13032", "setting": "[3]", "value": 3.12, "unit": "µM"},
      {"measurement": "Minimal inhibitory concentration, Enterococcus faecium (GREF), K9-28", "setting": "[4]", "value": 6.25, "unit": "µM"},
      {"measurement": "Minimal inhibitory concentration, Klebsiella K15-72", "setting": "[5]", "value": ">50", "unit": "µM"},
      {"measurement": "Minimal inhibitory concentration, Salmonella K14-40", "setting": "[6]", "value": 50, "unit": "µM"},
      {"measurement": "Minimal inhibitory concentration, Staphylococcus aureus (MRSA), K15-64", "setting": "[7]", "value": ">50", "unit": "µM"},
      {"measurement": "Therapeutic index TC50/EC50", "setting": "[8]", "value": ">17.4"}
    ]},
    {"molecule": "GWFKKTFHKVSHAVKSGIHAGQRGCSALGF [P17 HC]", "values": [
      {"measurement": "Minimal inhibitory concentration, E. coli", "setting": "[1]", "value": 1.56, "unit": "µM"},
      {"measurement": "Minimal inhibitory concentration, Bacillus spp K13-61", "setting": "[2]", "value": 6.25, "unit": "µM"},
      {"measurement": "Minimal inhibitory concentration, Corynebacterium glutamicum, ATCC 13032", "setting": "[3]", "value": 0.78, "unit": "µM"},
      {"measurement": "Minimal inhibitory concentration, Enterococcus faecium (GREF), K9-28", "setting": "[4]", "value": 0.39, "unit": "µM"},
      {"measurement": "Minimal inhibitory concentration, Klebsiella K15-72", "setting": "[5]", "value": 3.12, "unit": "µM"},
      {"measurement": "Minimal inhibitory concentration, Salmonella K14-40", "setting": "[6]", "value": 6.25, "unit": "µM"},
      {"measurement": "Minimal inhibitory concentration, Staphylococcus aureus (MRSA), K15-64", "setting": "[7]", "value": 6.25, "unit": "µM"},
      {"measurement": "Therapeutic index TC50/EC50", "setting": "[8]", "value": 13.6}
    ]}
  ]
}
